Data reported in ChEMBL document CHEMBL5291721, “A preclinical secondary pharmacology resource illuminates target-adverse drug reaction associations of marketed drugs” (Nat Commun, 2023).

Experiments:
[1] = target: Mu-type opioid receptor (Homo sapiens, UniProt P35372)
[2] = target: T1, Alpha-1A adrenergic receptor (Homo sapiens, UniProt P35348)
T1 sequence (P35348 whole entry): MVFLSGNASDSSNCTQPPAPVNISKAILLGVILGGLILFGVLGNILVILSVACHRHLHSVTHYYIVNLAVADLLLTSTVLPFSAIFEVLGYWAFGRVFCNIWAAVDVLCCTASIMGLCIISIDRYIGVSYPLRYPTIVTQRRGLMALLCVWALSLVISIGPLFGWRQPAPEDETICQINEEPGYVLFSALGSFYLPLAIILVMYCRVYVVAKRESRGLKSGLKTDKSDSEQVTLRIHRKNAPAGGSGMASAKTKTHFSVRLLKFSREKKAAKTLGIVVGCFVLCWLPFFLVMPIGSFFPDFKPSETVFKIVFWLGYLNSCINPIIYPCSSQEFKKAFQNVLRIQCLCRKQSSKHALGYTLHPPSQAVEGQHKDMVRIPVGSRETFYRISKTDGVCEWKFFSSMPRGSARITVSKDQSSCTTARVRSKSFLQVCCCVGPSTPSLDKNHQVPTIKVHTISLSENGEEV

[3] = target: Cannabinoid receptor 1 (Homo sapiens, UniProt P21554)
Cannabinoid receptor 1, sequence (P21554 whole entry): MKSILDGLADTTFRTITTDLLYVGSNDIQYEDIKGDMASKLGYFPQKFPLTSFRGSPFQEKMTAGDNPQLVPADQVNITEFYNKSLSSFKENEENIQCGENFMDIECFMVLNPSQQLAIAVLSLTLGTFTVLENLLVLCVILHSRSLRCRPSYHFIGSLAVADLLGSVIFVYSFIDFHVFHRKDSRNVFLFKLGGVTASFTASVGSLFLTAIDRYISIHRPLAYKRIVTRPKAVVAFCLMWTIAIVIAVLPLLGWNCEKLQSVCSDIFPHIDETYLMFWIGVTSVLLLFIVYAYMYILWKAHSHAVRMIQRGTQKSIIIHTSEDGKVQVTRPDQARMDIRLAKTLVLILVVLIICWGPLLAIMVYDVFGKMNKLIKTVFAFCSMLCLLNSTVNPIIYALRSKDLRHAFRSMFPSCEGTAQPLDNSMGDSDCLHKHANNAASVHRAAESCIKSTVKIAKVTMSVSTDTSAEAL

[4] = target: T2, Adenosine receptor A1 (Homo sapiens, UniProt P30542)
T2 sequence (P30542 whole entry): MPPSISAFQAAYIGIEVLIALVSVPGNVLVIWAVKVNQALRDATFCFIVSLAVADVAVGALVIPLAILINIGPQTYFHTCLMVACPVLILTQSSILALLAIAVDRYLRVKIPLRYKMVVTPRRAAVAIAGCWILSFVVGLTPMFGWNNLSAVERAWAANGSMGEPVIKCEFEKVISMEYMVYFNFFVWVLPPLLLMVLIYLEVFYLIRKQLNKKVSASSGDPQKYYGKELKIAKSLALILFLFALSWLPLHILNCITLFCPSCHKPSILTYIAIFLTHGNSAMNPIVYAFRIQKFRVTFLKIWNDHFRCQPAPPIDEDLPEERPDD

[5] = target: Beta-2 adrenergic receptor (Homo sapiens, UniProt P07550); type: functional, cell-based
Beta-2 adrenergic receptor, sequence (P07550 whole entry): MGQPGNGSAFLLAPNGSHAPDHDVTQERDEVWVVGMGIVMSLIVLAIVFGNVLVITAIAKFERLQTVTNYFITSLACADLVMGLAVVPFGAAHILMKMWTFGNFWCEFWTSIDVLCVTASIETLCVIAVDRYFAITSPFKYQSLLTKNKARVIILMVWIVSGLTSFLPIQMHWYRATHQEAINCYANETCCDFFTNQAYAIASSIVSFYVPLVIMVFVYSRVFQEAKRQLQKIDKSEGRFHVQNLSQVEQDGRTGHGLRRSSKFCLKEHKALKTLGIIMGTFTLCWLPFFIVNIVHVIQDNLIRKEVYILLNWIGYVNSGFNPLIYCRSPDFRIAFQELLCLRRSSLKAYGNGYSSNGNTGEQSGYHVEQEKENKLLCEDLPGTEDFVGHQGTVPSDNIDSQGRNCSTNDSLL

[6] = target: T3, Alpha-2A adrenergic receptor (Homo sapiens, UniProt P08913); type: functional, cell-based
T3 sequence (P08913 whole entry): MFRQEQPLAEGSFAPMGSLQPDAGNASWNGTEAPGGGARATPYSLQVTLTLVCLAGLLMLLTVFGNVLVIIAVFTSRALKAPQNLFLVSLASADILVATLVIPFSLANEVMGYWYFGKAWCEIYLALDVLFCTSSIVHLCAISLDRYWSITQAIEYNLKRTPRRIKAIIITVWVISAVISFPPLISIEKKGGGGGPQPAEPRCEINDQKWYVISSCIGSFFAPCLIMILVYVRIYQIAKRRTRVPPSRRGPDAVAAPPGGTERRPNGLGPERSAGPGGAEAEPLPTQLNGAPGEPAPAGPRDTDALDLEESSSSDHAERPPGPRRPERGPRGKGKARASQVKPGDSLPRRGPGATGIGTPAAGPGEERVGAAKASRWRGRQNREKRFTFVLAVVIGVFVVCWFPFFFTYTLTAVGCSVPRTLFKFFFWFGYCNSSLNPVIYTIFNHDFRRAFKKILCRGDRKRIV

[7] = target: Histamine H1 receptor (Homo sapiens, UniProt P35367)
Histamine H1 receptor, sequence (P35367 whole entry): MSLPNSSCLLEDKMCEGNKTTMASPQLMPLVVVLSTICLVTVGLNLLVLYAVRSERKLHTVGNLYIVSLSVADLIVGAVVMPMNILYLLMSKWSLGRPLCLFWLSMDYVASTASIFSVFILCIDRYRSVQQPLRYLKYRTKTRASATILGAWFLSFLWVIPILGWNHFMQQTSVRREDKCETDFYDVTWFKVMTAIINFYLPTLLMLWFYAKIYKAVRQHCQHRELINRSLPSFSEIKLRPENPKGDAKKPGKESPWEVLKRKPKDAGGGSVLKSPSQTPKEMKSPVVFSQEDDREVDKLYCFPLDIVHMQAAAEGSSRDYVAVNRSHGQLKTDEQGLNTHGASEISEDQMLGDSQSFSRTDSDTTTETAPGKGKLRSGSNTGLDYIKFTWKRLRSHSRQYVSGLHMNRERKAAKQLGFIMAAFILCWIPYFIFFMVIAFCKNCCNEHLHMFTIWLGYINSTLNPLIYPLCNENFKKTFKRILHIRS

[8] = target: Melanocortin receptor 4 (Homo sapiens, UniProt P32245)
Melanocortin receptor 4, sequence (P32245 whole entry): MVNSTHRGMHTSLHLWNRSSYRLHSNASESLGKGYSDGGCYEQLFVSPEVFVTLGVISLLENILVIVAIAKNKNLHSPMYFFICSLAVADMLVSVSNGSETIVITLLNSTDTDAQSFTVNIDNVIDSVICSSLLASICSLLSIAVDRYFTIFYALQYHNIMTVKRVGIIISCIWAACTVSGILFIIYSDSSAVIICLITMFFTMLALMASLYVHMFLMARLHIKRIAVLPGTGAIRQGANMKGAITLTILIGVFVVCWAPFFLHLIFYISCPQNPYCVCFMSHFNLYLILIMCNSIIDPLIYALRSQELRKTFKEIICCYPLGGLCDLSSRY

[9] = target: T4, Cholecystokinin receptor type A (Homo sapiens, UniProt P32238)
T4 sequence (P32238 whole entry): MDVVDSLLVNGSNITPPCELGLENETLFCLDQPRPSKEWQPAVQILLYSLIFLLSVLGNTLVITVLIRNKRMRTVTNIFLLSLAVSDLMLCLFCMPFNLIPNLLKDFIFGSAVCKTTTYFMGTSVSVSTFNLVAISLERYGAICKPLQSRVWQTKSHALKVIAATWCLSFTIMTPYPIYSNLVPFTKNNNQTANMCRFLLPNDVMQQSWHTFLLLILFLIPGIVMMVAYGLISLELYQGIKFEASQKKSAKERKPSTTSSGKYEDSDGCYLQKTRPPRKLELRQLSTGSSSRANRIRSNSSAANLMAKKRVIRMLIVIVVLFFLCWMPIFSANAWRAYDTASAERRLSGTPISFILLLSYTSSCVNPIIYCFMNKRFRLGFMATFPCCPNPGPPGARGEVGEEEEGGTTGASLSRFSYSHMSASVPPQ

[10] = target: T1, Alpha-1A adrenergic receptor; type: functional, cell-based
[11] = target: Beta-3 adrenergic receptor (Homo sapiens, UniProt P13945)
Beta-3 adrenergic receptor, sequence (P13945 whole entry): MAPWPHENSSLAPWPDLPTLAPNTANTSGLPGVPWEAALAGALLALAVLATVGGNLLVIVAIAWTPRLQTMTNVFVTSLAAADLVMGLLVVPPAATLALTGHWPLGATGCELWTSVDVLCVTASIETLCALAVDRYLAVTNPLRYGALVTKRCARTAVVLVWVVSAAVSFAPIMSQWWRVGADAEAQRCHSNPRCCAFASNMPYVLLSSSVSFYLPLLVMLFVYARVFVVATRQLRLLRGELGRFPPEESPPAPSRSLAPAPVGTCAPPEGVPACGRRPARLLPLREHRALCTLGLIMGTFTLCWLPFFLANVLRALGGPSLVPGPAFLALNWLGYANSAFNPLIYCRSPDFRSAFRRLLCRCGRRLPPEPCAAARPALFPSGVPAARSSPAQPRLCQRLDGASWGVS

[12] = target: Histamine H2 receptor (Homo sapiens, UniProt P25021)
Histamine H2 receptor, sequence (P25021 whole entry): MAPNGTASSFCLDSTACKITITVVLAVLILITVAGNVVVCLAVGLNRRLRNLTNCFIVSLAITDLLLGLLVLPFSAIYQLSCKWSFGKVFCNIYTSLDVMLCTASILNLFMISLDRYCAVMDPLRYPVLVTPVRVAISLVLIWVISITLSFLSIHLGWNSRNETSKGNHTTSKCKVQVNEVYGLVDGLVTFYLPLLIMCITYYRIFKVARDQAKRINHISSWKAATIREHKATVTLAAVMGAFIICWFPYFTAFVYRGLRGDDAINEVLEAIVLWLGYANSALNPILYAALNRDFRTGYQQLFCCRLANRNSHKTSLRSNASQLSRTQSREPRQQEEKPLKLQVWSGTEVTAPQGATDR

[13] = target: T5, Gastric inhibitory polypeptide receptor (Homo sapiens, UniProt P48546)
T5 sequence (P48546 whole entry): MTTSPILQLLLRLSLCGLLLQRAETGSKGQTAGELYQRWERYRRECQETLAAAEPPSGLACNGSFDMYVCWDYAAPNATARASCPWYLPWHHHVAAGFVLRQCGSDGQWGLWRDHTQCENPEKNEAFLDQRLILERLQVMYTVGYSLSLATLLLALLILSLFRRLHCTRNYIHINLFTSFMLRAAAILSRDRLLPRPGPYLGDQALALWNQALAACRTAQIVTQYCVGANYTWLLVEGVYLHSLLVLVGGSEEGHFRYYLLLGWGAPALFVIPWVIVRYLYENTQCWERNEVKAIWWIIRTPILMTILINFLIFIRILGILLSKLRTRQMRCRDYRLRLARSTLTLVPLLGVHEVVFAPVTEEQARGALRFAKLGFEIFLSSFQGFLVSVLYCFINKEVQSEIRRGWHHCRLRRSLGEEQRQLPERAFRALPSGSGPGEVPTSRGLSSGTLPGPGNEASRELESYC
Further: assay procedure not described here.

Mu-type opioid receptor, sequence (P35372 whole entry): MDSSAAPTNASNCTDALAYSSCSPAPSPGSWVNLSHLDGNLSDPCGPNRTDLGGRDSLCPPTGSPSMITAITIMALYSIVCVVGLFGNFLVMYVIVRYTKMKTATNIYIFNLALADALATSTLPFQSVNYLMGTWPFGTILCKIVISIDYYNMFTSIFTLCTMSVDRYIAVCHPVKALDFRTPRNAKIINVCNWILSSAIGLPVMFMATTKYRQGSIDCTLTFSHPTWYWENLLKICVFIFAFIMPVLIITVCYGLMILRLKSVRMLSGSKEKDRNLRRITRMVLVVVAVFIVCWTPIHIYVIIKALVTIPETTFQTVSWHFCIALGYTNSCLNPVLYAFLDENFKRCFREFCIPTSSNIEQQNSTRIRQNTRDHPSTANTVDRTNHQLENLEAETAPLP

| Structure (SMILES) | AC50 [1] [µM] | AC50 [2] [µM] | AC50 [3] [µM] | AC50 [4] [µM] | AC50 [5] [µM] | AC50 [6] [µM] | AC50 [7] [µM] | AC50 [8] [µM] | AC50 [9] [µM] | AC50 [10] [µM] | AC50 [11] [µM] | AC50 [12] [µM] | AC50 [13] [µM] |
| --- | --- | --- | --- | --- | --- | --- | --- | --- | --- | --- | --- | --- | --- |
| CN1CC(=O)N2[C@H](c3ccc4c(c3)OCO4)c3[nH]c4ccccc4c3C[C@@H]2C1=O | > 30 | > 10 | > 10 | > 30 | > 30 | > 10 | > 10 | > 30 | > 30 |  |  |  |  |
| COc1ccc2cccc(CCNC(C)=O)c2c1 [AGOMELATINE] | > 30 | > 10 | > 10 | > 30 |  | > 30 | > 10 | > 30 | > 30 | > 30 | > 30 | > 10 | > 30 |
| CN1CCc2cccc3c2[C@H]1Cc1ccc(O)c(O)c1-3 [APOMORPHINE] | > 30 | > 10 | > 10 | > 30 | > 30 | > 10 | 15 | > 30 | > 30 |  | > 30 | > 10 | > 30 |
| CC(C)c1c(C(=O)Nc2ccccc2)c(-c2ccccc2)c(-c2ccc(F)cc2)n1CC[C@@H](O)C[C@@H](O)CC(=O)O [ATORVASTATIN] |  | > 10 | > 10 | > 30 | > 30 | > 10 |  | > 30 | > 30 | > 30 | > 30 | > 10 | > 30 |
| NC(CO)C(=O)NNCc1ccc(O)c(O)c1O (centres undefined) [BENSERAZIDE] | > 10 | > 10 | > 10 | > 30 | > 30 | > 10 | > 10 | > 30 | > 30 | > 30 | > 30 | > 10 | > 30 |
| [H]/N=C(/N)c1ccc(NCc2nc3cc(C(=O)N(CCC(=O)O)c4ccccn4)ccc3n2C)cc1 [DABIGATRAN] | > 30 |  |  | > 30 | > 30 | > 30 | > 30 |  | > 30 | > 30 |  |  |  |
| CN[C@@H](C)[C@H](O)c1ccccc1 [EPHEDRINE] | > 30 | > 10 | > 10 | > 30 | > 30 | > 10 | > 10 | > 30 | > 30 |  | > 30 | > 10 | > 30 |
| CCNC(C)Cc1cccc(C(F)(F)F)c1 (centres undefined) [FENFLURAMINE] | > 30 |  | > 10 | > 30 |  |  |  | > 30 | > 30 |  | > 30 |  | > 30 |
| CCCCCN(C)CCC(O)(P(=O)(O)O)P(=O)(O)O [IBANDRONIC ACID] | > 30 | > 10 | > 30 | > 30 |  | > 30 | > 30 | > 30 | > 30 | > 30 | > 30 | > 10 | > 30 |
| CCN1CCC[C@H]1CNC(=O)c1cc(S(N)(=O)=O)ccc1OC [LEVOSULPIRIDE] | > 30 | 16 | > 10 | > 30 | > 30 | > 10 |  | > 30 | > 30 | > 30 |  |  |  |
| CC/C=C\C/C=C\C/C=C\CCCCCCCC(=O)O [LINOLENIC ACID] | > 30 |  |  | > 30 | > 30 | > 30 | > 30 |  | > 30 | > 30 |  |  |  |
| NC(=O)C[S+]([O-])C(c1ccccc1)c1ccccc1 (centres undefined) [MODAFINIL] | > 10 | > 10 | > 10 | > 30 | > 30 | > 10 |  | 24.1 | > 30 | > 30 | > 30 | > 10 | > 30 |
| O=C(O)CCCc1ccccc1 [PHENYLBUTANOIC ACID] | > 10 | 14 | > 30 | > 10 |  | > 30 | > 30 | > 10 | > 10 | > 30 | > 30 |  | > 30 |
| CC(Cc1ccccc1)NCCC(c1ccccc1)c1ccccc1 (centres undefined) [PRENYLAMINE] | 1.8 | 0.877 | 7.95 | > 30 | > 30 | > 10 | 7.9 | 6.4 | > 30 | > 30 |  |  |  |
| CCN(CC)CCOC(=O)c1ccc(N)cc1 [PROCAINE] | > 30 | > 10 | > 10 | > 30 | > 30 | > 10 |  | > 30 | > 30 | > 30 |  |  |  |
| Cc1c(C(=O)Nc2ccc(N3C[C@@H](C)O[C@@H](C)C3)nc2)cccc1-c1ccc(OC(F)(F)F)cc1 [SONIDEGIB] | > 10 |  | > 10 | > 30 |  |  | > 10 | > 30 | > 30 |  | > 30 | > 10 | > 30 |
| COc1ccc(C(=O)N2CCN(c3ccc4c(c3)CCC(=O)N4)CC2)cc1OC [VESNARINONE] |  |  |  | > 30 | > 30 | > 30 | > 30 |  | > 30 | > 30 |  |  |  |
| CN1CCN(C(=O)OC2c3nccnc3C(=O)N2c2ccc(Cl)cn2)CC1 (centres undefined) [ZOPICLONE] | > 10 | > 10 |  | > 30 |  | > 10 | > 30 | > 30 | > 30 | > 30 | > 30 | > 10 | > 30 |
